From paper PMC5362899, “Structural insights into the nucleotide base specificity of P2X receptors” (Scientific Reports, 2017) come the findings set out here.

SMILES strings stand for the structures.

The target in this assay is T1, zfP2X4 (ΔP2X4-C) WT (Danio rerio, UniProt F8W463, N187R/N78K).
T1 construct: EGFP (N); octa-histidine tag (N); made in house; host or cells: Sf9 insect cells
T1 sequence (F8W463 28-365 N78K/N187R limits assumed): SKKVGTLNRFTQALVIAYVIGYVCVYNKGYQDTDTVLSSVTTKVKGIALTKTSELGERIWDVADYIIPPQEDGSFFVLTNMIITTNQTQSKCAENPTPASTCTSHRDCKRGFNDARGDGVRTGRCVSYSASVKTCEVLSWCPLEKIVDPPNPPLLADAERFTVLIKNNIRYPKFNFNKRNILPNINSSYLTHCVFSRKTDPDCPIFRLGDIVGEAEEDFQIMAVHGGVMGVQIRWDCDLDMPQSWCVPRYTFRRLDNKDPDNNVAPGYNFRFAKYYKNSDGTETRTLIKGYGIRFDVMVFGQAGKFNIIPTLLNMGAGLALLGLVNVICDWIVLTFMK
The assay can be described thus: ATR-FTIR difference spectroscopy, residual nucleotide after washing, zfP2X4 WT. Type of assay: binding, zebrafish. The following applies: 10 μM nucleotide, after 15–30 min washing, P-O stretching bands 1250–800 cm−1. An excerpt:
To further investigate the nucleotide binding specificity of zfP2X4, we applied ligand-binding induced difference Attenuated total reflectance (ATR)-Fourier-transform infrared (FTIR) spectroscopy on the WT and conserved threonine mutants (T189S and T189V) of zfP2X4.
Figure 5 ATR-FTIR spectroscopic analysis of zfP2X4 for the ATP and CTP bindings. (A) The reduction of the ligand binding induced difference spectra in the ΔP2X4-C ^zfWT, ^zfT189S and ^zfT189V mutants around the P-O stretching region (1250–800 cm^−1) after washing treatment for 15–30 min. (B) The residual nucleotides after the washing treatment estimated from the ATR-FTIR analysis in (A).
The nucleotide binding affinity of zfP2X4 was analyzed by reduction of the band intensity after washing treatment (Fig. 5). The reduction of the P-O stretching bands between 1250–800 cm^−1 was monitored for ATP (Fig. 5A). […]
The perfusion-induced difference FTIR spectroscopy was performed as similarly to the previous studies. […] ATR-FTIR spectra of the samples were recorded at 25 °C and 2 cm^−1 resolution using a VERTEX 70 spectrometer (Bruker Optics) equipped with a liquid-nitrogen-cooled MCT detector. […] The obtained difference spectra were normalized based on the absolute absorbance of the amide I band at 1653 cm^−1, which well correlates with the quantities of the proteins on the ATR crystals. […]

Turning to `Nc1ncnc2c1ncn2[C@@H]1O[C@H](COP(=O)(O)OP(=O)(O)OP(=O)(O)O)[C@@H](O)[C@H]1O` [ATP, Adenosine 5-triphosphate], the “residual nucleotide binding after washing” value is ~ 80%.
In the case of `Nc1ccn([C@@H]2O[C@H](COP(=O)(O)OP(=O)(O)OP(=O)(O)O)[C@@H](O)[C@H]2O)c(=O)n1` [CTP] it was ~ 50%.
